Key:
gastrin (CCK2) receptors = target: T1, gastrin (CCK2) receptors (Rattus norvegicus, UniProt P30553); test: immature rat stomach assay, gastrin (CCK2) antagonist activity; assay type: cell-based; settings: pentagastrin dose-response curves, acid secretion
T1 construct: The stomach was excised and flushed with ca. 1 ml of unbuffered physiological saline solution; from tissue; host or cells: isolated lumen-perfused stomach of immature rats (ca. 21 days old)
T1 sequence (P30553 1-452): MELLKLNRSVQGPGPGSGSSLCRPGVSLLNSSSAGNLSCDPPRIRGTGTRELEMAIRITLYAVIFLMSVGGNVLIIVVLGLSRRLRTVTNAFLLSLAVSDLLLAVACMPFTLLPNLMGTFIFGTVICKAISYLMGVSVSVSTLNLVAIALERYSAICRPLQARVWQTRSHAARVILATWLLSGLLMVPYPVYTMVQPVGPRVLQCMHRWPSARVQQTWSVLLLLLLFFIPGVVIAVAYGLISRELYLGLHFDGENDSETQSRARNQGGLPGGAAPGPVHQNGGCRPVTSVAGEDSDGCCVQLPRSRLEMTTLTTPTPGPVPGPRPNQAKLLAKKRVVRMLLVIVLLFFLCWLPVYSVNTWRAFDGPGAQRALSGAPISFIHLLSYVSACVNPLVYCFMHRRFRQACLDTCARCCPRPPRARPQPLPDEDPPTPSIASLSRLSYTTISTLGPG
Experimental: The compounds of the examples were tested for gastrin (CCK2) antagonist activity in an immature rat stomach assay. The procedure was as follows:
The oesophagus of immature rats (33-50 g, ca. 21 days old) was ligated at the level of the cardiac sphincter and the duodenal sphincter was cannulated. The stomach was excised and flushed with ca. 1 ml of unbuffered physiological saline solution. The fundus was punctured and cannulated. A further 4-5 ml of unbuffered solution was flushed through the stomach to ensure the preparation was not leaking. […] The stomach was continuously perfused at a rate of 1 ml min^−1 with unbuffered solution gassed with 100% O2 with the perfusate passing over an internally referenced pH-electrode fixed 12 cm above the stomach.
After 120 min of stabilisation the drugs were added directly to the serosal solution in the organ bath and after a further 60 min cumulative pentagastrin dose-response curves were started.

[1] = target: T2, human gastrin (CCK2) receptors (Homo sapiens, UniProt P32239); test: [125I]-BH-CCK-8S competition binding at human CCK2 receptors cloned into NIH3T3 cells; settings: hCCK2 receptor, NIH3T3 clone 7 membranes, [125I]-BH-CCK-8S 200 pM, 150 min at 21° C.
T2 construct: amplified by PCR (polymerase chain reaction) from the start codon to the stop codon; expressed in transfected cells
T2 sequence (P32239 1-447): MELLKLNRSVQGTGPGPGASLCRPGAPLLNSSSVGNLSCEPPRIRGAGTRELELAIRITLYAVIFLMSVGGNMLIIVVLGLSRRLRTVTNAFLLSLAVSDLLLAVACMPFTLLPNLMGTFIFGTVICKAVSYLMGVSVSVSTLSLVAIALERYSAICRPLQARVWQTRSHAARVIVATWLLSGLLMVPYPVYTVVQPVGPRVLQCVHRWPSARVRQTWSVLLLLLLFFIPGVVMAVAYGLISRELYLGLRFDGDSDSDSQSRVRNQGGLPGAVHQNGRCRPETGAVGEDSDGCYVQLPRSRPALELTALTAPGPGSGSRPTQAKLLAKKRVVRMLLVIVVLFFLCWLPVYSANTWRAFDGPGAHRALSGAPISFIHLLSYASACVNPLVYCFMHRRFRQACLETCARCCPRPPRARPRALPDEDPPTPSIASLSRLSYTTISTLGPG
Text: Step a: Subcloning of IMAGE Clone Encoding the Human CCK2R into a Mammalian Expression Vector
I.M.A.G.E. (Integrated Molecular Analysis of Genomes and their Expression) clone number 3504160 (Lennon et al. Genomics 33, 151-152 (1996)) was purchased from the HGMP (Human Genome Mapping Project, Cambridge). The cDNA encoding the mRNA for the human CCK2R, corresponding to accession number BC000740, was present in vector pOTB7 in host cell DH10B. The cells, initially streaked on to LB-Agar plates containing 20 μg/ml chloramphenicol, were then grown in LB containing 20 μg/ml chloramphenicol with shaking at 37° C. according to standard techniques (Current Protocols in Molecular Biology, Wiley). DNA was prepared using the QIAGEN® EndoFree™ plasmid Maxi kit (Qiagen Ltd.) according to the manufacturer's protocol. The DNA was then amplified by PCR (polymerase chain reaction) from the start codon to the stop codon using primers containing restriction sites, Eco R1 and Xba I respectively, to facilitate uni-directional cloning. […]
The PCR product was purified using the QIAGEN® MinElute™ PCR purification kit, according to the manufacturer's instructions. […] The digested DNA bands of the correct size, analysed by ethidium bromide stained agarose/TBE gels, were excised and purified using QIAGEN@ MinElute™ gel extraction kit, according to the manufacturer's instructions. […]

Compound | pKB rat stomach (gastrin (CCK2) receptors) | pKi ± s.e.mean [1]
CNc1cc(NC(=O)CN2N=C(C3CCCCC3)c3ccccc3N(CC(O)C(C)(C)C)C2=O)cc(C(=O)OC)c1 (stereo not drawn) [Example 78] | 6.49 ± 0.33 | 
Cc1cccc(NC(=O)N[C@@H]2N=C(c3ccccc3)c3ccccc3N(CC(=O)c3ccccc3C)C2=O)c1 [YM022] |  | 10.19 ± 0.03
Cc1cccc2c1C(C1CCCCC1)=NN(CC(=O)Nc1cccc(C(=O)O)c1)C(=O)N2CC(=O)C(C)(C)C [Example 114] | 7.45 ± 0.43 | 

— patent US20060003993A1, “Benzotriazepnes as gastrin and cholecystokinin receptor ligands” (James Black Foundation Limited, priority 2001, published 2006)
